Source: patent publication US10479786B2, “Protein kinase inhibitors” (Princeton Drug Discovery Inc, priority 2016, dated 2019)

Experiments:
[1] = Pharmacokinetics in Sprague-Dawley rats, 2-in-1 dosing; type: in vivo; details: rat; for V: intravenous 1 mg/kg
Experimental: Sprague-Dawley rats (approximate weight 275-300 g, N=3) were dosed intravenously at 5 mL/kg and orally at 10 mL/kg with the above dosing solutions. Blood samples were collected into tubes containing EDTA as the anticoagulant at 0, 0.25 (intravenous only), 0.5, 1, 2, 4, 8, 10, and 24 h post-dosing, and plasma samples were prepared by centrifugation. The plasma samples were mixed with 3× volumes of acetonitrile containing 100 nM reserpine as the internal standard, and centrifuged at 4000 RPM for 15 min. The supernatants were injected for LC/MS analysis which were carried out on a AB Sciex 4000 Q Trap LC/MS/MS system coupled with Shimadzu Prominence UFLCXR 20 series (including a CBM-20A controller, two LC-20ADXR solvent delivery units, SIL-20AC HT autosampler, CTO-20A column oven, and a SPD-20A UV detector). The samples were separated on a Phenomenex Columbus column (C18, 4 μm, 50×2 mm) eluted with two solvent systems: 2 mM ammonium acetate in water containing 0.1% formic acid (A) and methanol (B) at a linear gradient starting with 25% B. Electrospray ionization in positive mode was used to acquire LC/MS/MS data.

ARG = molecular target: T1, ARG (Homo sapiens, UniProt P42684); test: Off-chip Mobility Shift Assay, kinase inhibition; type: biochemical
T1 construct: purchased Carna Biosciences, Inc
T1 sequence (P42684 whole entry): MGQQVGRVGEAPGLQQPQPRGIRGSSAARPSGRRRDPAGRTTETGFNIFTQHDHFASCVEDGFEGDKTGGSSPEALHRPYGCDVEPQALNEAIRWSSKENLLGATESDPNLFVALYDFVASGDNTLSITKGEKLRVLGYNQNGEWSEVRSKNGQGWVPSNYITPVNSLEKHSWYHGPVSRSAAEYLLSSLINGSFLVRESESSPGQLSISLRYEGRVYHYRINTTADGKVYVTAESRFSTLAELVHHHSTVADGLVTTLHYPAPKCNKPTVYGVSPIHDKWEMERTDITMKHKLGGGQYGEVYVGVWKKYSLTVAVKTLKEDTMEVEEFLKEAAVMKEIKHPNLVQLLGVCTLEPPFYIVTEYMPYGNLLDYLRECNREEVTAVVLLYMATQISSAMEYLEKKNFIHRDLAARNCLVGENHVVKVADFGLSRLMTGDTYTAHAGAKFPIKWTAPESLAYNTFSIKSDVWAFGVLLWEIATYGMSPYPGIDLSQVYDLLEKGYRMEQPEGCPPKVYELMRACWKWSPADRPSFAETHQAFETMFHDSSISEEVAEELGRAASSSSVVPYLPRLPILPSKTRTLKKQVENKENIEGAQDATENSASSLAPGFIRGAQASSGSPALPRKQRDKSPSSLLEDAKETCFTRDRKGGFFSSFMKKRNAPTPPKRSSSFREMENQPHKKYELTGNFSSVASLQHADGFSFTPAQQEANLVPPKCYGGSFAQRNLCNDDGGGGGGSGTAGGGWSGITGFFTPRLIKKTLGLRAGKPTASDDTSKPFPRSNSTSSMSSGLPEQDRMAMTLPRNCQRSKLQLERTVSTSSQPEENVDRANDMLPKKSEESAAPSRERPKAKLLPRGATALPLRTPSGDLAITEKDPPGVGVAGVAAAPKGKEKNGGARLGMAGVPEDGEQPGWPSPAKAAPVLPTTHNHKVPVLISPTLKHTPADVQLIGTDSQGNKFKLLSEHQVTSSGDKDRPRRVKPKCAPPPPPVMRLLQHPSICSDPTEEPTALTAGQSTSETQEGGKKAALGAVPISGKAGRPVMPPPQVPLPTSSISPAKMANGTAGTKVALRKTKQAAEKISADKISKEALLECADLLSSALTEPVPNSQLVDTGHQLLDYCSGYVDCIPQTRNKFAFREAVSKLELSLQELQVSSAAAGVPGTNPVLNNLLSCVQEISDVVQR

DDR2 = molecular target: T2, DDR2 (Homo sapiens, UniProt Q16832); test: Off-chip Mobility Shift Assay, kinase inhibition; type: biochemical
T2 construct: purchased Carna Biosciences, Inc
T2 sequence (Q16832 22-855): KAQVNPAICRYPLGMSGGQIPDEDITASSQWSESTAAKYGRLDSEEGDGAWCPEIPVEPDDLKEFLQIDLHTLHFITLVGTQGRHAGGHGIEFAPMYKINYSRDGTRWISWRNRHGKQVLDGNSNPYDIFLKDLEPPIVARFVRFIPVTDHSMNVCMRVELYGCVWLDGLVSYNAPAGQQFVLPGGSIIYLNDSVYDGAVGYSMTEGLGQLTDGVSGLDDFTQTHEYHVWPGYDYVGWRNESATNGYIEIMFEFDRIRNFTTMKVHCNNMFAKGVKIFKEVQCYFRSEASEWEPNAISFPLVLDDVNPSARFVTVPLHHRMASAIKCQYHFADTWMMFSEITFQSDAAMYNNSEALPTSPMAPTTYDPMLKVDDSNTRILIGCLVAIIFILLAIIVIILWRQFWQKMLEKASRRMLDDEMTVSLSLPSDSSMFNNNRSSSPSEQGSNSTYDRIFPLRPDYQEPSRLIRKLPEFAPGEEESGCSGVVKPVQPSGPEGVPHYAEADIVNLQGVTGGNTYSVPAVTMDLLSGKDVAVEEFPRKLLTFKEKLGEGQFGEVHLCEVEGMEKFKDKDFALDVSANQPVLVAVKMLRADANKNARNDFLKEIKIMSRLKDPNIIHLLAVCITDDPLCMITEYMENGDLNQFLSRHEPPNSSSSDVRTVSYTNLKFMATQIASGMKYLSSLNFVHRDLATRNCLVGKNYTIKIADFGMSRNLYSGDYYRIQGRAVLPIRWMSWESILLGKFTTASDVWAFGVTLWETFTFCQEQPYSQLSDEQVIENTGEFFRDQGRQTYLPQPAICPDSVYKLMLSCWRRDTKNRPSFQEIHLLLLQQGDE

FGR = molecular target: T3, FGR (Homo sapiens, UniProt P09769); test: Off-chip Mobility Shift Assay, kinase inhibition; type: biochemical
T3 construct: purchased Carna Biosciences, Inc
T3 sequence (P09769 whole entry): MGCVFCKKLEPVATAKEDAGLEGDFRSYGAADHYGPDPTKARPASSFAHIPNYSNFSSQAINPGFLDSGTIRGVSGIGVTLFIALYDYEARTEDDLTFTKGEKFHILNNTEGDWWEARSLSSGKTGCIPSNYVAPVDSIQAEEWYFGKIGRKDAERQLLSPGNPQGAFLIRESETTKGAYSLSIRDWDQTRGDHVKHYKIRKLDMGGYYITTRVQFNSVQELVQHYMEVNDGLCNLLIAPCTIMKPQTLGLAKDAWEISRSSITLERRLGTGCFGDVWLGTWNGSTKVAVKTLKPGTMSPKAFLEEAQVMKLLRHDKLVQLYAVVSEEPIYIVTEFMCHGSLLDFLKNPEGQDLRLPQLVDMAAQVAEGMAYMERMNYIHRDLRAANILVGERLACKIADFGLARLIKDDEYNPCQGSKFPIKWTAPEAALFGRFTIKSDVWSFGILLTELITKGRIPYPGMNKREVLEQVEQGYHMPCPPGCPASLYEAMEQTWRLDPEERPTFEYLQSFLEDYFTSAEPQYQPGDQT

HCK = molecular target: T4, HCK (Homo sapiens, UniProt P08631); test: Off-chip Mobility Shift Assay, kinase inhibition; type: biochemical
T4 construct: purchased Carna Biosciences, Inc
T4 sequence (P08631 whole entry): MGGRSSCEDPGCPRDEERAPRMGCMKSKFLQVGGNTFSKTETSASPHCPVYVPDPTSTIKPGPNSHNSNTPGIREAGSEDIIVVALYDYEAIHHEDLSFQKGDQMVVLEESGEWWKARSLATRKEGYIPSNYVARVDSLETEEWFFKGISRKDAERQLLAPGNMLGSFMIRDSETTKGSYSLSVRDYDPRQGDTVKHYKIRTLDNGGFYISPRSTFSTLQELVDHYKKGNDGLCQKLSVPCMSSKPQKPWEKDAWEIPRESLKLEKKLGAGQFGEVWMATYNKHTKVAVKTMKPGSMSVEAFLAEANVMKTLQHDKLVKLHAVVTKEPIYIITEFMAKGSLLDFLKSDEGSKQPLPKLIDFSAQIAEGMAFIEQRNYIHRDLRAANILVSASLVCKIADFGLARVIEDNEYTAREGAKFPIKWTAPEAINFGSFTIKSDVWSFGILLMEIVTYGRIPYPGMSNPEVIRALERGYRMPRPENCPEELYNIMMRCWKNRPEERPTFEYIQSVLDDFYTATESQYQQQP

LYNa = molecular target: T5, LYNa (Homo sapiens, UniProt P07948); test: Off-chip Mobility Shift Assay, kinase inhibition; type: biochemical
T5 construct: purchased Carna Biosciences, Inc
T5 sequence (P07948 whole entry): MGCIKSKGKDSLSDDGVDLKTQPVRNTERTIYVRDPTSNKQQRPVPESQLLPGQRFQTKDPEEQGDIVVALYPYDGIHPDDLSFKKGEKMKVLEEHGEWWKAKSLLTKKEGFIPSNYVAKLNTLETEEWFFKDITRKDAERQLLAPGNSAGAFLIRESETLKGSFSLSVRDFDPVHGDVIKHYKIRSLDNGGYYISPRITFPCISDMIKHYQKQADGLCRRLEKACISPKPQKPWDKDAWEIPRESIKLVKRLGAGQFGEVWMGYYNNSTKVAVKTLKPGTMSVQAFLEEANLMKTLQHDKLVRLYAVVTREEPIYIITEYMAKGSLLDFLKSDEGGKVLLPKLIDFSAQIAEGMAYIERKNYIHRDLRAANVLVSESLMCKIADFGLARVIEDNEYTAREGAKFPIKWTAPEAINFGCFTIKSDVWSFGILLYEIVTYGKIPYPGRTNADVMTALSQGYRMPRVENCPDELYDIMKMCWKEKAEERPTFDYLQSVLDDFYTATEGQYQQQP

PDGFRα = molecular target: T6, PDGFRα (Homo sapiens, UniProt P16234); test: Off-chip Mobility Shift Assay, kinase inhibition; type: biochemical
T6 construct: purchased Carna Biosciences, Inc
T6 sequence (P16234 24-1089): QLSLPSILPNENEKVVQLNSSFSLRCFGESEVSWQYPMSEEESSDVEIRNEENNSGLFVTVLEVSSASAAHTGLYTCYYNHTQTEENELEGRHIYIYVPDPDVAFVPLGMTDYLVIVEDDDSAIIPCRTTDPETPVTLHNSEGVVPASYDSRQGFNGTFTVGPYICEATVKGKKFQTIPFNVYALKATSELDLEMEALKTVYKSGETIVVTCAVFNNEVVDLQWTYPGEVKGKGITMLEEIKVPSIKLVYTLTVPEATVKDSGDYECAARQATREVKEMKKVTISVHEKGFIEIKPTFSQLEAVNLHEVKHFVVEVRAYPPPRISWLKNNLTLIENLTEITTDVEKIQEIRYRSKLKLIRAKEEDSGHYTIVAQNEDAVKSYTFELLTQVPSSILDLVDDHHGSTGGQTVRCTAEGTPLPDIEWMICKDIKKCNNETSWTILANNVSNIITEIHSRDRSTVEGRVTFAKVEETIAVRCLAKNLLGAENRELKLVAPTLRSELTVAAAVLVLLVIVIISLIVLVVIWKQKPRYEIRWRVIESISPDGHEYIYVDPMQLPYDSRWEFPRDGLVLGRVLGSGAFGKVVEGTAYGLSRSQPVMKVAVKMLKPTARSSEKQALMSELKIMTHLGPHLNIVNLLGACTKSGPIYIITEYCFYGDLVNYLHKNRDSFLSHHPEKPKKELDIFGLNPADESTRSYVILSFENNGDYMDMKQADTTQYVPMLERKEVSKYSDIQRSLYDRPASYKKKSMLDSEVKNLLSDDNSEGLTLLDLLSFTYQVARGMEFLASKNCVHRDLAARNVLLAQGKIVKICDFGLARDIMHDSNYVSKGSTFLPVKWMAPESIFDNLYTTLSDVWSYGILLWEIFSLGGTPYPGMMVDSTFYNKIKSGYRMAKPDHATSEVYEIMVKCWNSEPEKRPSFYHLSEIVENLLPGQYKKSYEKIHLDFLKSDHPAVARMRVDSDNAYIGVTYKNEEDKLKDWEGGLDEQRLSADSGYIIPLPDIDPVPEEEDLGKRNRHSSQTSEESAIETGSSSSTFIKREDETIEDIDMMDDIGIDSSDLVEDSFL

PDGFRβ = molecular target: T7, PDGFRβ (Homo sapiens, UniProt P09619); test: Off-chip Mobility Shift Assay, kinase inhibition; type: biochemical
T7 construct: purchased Carna Biosciences, Inc
T7 sequence (P09619 33-1106): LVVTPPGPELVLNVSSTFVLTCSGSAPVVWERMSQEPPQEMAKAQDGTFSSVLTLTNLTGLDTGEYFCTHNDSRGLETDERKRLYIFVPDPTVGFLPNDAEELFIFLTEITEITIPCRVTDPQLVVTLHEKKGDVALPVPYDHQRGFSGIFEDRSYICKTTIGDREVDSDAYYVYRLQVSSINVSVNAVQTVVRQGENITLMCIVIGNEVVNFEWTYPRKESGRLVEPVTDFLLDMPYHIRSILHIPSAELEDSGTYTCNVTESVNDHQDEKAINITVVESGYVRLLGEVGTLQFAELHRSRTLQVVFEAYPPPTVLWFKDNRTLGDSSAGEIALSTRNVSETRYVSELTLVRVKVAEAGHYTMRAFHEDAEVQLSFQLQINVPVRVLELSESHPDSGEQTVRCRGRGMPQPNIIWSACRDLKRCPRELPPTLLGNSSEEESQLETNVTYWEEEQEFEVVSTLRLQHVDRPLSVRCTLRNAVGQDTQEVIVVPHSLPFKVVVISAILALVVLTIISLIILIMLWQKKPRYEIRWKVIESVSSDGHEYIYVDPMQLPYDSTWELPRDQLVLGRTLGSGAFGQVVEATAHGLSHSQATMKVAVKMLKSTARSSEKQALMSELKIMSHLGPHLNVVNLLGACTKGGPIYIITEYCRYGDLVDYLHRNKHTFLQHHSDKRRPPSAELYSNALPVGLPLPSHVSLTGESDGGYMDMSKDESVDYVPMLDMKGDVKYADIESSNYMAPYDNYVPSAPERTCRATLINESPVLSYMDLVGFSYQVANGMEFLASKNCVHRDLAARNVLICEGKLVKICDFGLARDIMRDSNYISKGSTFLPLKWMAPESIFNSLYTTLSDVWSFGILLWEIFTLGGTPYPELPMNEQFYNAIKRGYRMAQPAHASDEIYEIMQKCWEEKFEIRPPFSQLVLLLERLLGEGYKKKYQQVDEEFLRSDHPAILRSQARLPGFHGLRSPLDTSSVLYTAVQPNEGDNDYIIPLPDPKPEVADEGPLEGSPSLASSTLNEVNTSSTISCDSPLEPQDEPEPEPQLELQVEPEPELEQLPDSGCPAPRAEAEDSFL

[2] = test system: battery of selected protein kinases; test: In vitro screen of a battery of selected protein kinases (summary statement); type: biochemical; details: BTK, BMX, ABL, ABL(E255K), SRC, ACK, ARG, BLK, DDR2, EPHA, FGR, FMS, FRK, FYN, HCK, LCK, LYN, PDGFRα, PDGFRβ, YES, PIK3CA/PIK3R1, among others
SU-DHL-4 = test: Cell inhibition assay (PrestoBlue, 48 h); type: cell-based; details: Homo sapiens, SU-DHL-4, 48 h, SU-DHL-4 diffuse large B-cell lymphoma cells, read-out: IC50, inhibition of growth
Mino = test: Cell inhibition assay (PrestoBlue, 48 h); type: cell-based; details: Homo sapiens, Mino cells, read-out: IC50, inhibition of growth
[3] = Table 2, co-dosed with compound IV
[4] = Table 3, co-dosed with compound X

F, percent oral bioavailability ([1]; PO 5 mg/kg versus intravenous 1 mg/kg, AUCinf dose normalized, Table 3) [%] | IC50 (SU-DHL-4) [µM] | SMILES | V [1, 3] [L/kg] | V [1, 4] [L/kg] | inhibition at 0.01 µM (ARG) [%] | inhibition at 0.01 µM (DDR2) [%] | inhibition at 0.01 µM (FGR) [%] | inhibition at 0.01 µM (HCK) [%] | inhibition at 0.01 µM (LYNa) [%] | inhibition at 0.01 µM (PDGFRα) [%] | inhibition at 0.01 µM (PDGFRβ) [%] | activity to inhibit kinases [2] | IC50 (Mino) [µM]
3.9±1 | – | Cc1nc(Nc2ncc(C(=O)Nc3c(C)cccc3Cl)s2)cc(N2CCN(CCO)CC2)n1 [Dasatinib, reference compound] | 3 ± 0 | 2 ± 0 | – | – | – | – | – | – | – | – | –
– | – | [2H]c1cc(C)c(NC(=O)c2cnc(Nc3cc(N4CCN(CCO)CC4)nc(C)n3)s2)c(Cl)c1 [Compound III] | 3 ± 0 | 3 ± 0 | > 50 | > 50 | > 50 | > 50 | > 50 | > 50 | > 50 | potent activity | –
– | < 0.02 | Cc1nc(Nc2ncc(C(=O)Nc3c(C)cccc3Cl)s2)cc(N2CCCC2)n1 [Compound XIV, N-(2-chloro-6-methylphenyl)-2-[[2-methyl-6-(pyrrolidin-1-yl)pyrimidin-4-yl]amino]thiazole-5-carboxamide] | – | – | – | – | – | – | – | – | – | – | < 0.05
